Assays:
CDK4 [1] = target: T1, CDK4 (Homo sapiens, UniProt P11802); assay: Gel-based ABPP competition with Compound 303 probe on isolated CDK4; format: binding; settings: Cy3 fluorescence readout
Method: Activity-based protein profiling (ABPP) was performed as follows. CDK4 was diluted in PBS to 50 nM, then 50 μL was added to each well of a 96-well PCR plate. Ligands were dissolved fresh in DMSO to 5 μM, and 1 μL was added so each well contained a unique ligand at the indicated concentration. Wells were mixed and allowed to incubate 1 h at 23° C. […] Excess oxaziridine was quenched with N-acetyl methionine via addition of 1 μL of 10 mM DMSO stock (200 μM final), wells mixed and allowed to incubate 1 h at 23° C. A stock was prepared 1:5 of 12.5 μM DBCO-Cy3 in DMSO: 1.2% SDS/PBS. To each well was added 6 μL of this stock, the wells mixed and allowed to incubate overnight protected from light at 23° C. […] Samples were loaded and separated on precast 4-20% TGX gels and scanned by ChemiDoc MP for measuring in-gel fluorescence. […]
The oxaziridine fragment library from Example 8 was screened for methionine-directed modifiers of CDK4 via a gel-based ABPP platform as described in Example 3, seen in FIG. 7B. […] DBCO-Cy3 was then introduced by strain-promoted click chemistry to provide a fluorescence readout. The samples were subsequently separated via SDS-PAGE and fluorescence signals were normalized via silver stain to triage any covalent ligands that induced general protein aggregation, which would generate a false positive Cy3 signal, as shown in FIG. 5B. […]

CDK4 [2] = target: T1, CDK4; assay: Shotgun proteomics (MS/MS) site of modification on CDK4; format: binding; settings: 50 μM oxaziridine, 30 min, 23° C.
Method: To more accurately assess residue reactivity of oxaziridines on CDK4, 10 μg of CDK4 was diluted with 90 μg whole cell extract derived from mouse liver to a total volume of 100 μL in PBS. Protein mixture was treated with 50 μM oxaziridine (DMSO) and allowed to incubate at 23° C. for 30 min. Labeled protein was precipitated via addition of 900 μL MeOH at −80° C. overnight. The next day, sample was spun at max speed at 4° C. for 10 min. The pellet was gently washed 3 times with a solution of ice cold MeOH. The supernatant was then removed, and the pellet resuspended in 30 μL freshly prepared 8 M urea/PBS. A 5× stock of ProteaseMAX (Promega; cat no. V2071) was prepared by dissolved the pellet in 100 μL ammonium bicarbonate. To the protein mixture was added 30 μL 1×ProteaseMAX, 40 μL ammonium bicarbonate, and 10 μL of 110 mM freshly prepared TCEP (Pierce; cat no. 20490). […]
Peptides from all experiments were analyzed on a Q Exactive Plus mass spectrometer (Thermo Fisher Scientific); pure proteins were analyzed on a C18 only column, while complex proteomes were analyzed via a five step Multidimensional Protein Identification Technology (MudPIT).^7 In both cases, Inlines (IDEX; cat no.M-520) were fitted with ˜20 cm of 250 μm tubing and prepacked with 4 cm of Aqua C18 reverse-phase resin (Phenomenex; cat no. 04A-4299). […]
Data were analyzed with Byologic (Protein Metrics Inc.). […]

T1 sequence (P11802 whole entry): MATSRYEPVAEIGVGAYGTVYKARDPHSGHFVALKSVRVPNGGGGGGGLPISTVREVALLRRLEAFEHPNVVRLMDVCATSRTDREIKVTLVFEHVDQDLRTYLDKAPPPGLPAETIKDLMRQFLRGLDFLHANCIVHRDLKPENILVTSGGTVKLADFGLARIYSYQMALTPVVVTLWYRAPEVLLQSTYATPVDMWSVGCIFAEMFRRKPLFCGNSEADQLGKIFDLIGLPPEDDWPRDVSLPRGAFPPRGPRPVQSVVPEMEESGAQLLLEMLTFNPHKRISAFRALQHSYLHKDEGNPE
T1 sequence (P24385 whole entry partner): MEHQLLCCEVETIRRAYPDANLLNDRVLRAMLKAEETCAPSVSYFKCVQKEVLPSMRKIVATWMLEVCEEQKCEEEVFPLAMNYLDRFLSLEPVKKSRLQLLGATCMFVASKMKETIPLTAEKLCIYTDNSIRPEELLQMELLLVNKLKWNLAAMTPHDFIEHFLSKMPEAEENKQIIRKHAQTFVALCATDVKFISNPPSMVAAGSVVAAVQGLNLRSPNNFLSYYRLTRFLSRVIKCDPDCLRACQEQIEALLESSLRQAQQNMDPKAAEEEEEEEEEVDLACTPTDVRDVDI

With `O=C(N1CC2COCC2C1)N1OC1c1ccccc1` (centres unmarked) [Compound 148] the “competition with Compound 303 probe for CDK4 binding” value (CDK4 [1]) was “competition with the Compound 303 probe for CDK4 binding in a dose-dependent manner” and the “site(s) of modification on CDK4” value (CDK4 [2]) was “M169, with minor labeling at M264”.

Source: patent publication US20250206708A1, “AN OXAZIRIDINE PLATFORM FOR TARGETING FUNCTIONAL ALLOSTERIC METHIONINE SITES” (Novartis AG, priority 2022, published 2025)
